Measured values published in paper PMC6968521, “Novel CDKs inhibitors for the treatment of solid tumour by simultaneously regulating the cell cycle and transcription control” (Journal of Enzyme Inhibition and Medicinal Chemistry, 2020).

How the values were obtained:
T-47D cells = assay: CCK-8 cytotoxicity assay, T-47D; assay type: cell-based; settings: Homo sapiens, T47D; CCK-8, 72 h incubation, three independent experiments; read-out: In vitro cell growth inhibition IC50, T-47D
Procedure: (§1) All the human cancer cell lines were obtained from ATCC. Cells were cultured in RPMI-1640 (BioInd) medium according to the instructions from ATCC, with the medium containing 10% FBS (BioInd), 1% antibiotics (penicillin and streptomycin) at 37 °C in an atmosphere of 5% CO2.
(§2) Cytotoxicity assay were conducted as described previously using a Cell Counting Kit-8 (CCK-8) assay (#CK04, Dojindo, Kumamoto, Japan)[37].

MCF7 cells [1] = assay: Annexin V-FITC/PI apoptosis assay, MCF7; assay type: cell-based, human; settings: 0.1 to 0.5 µM, 48 h incubation
Procedure: (§3) Cells at a density of 3 × 10^5 cells/mL were seeded in six-well plates and treated with compounds at different concentrations for 48 h. The cells were then harvested and washed twice with cold PBS. Then the cells were subjected to an Annexin V/PI Apoptosis Detection kit (BD Biosciences) for staining according to manufacture’s instructions, and finally analysed by flow cytometry (Modfit, BD).

CDK6 = target: T1, CDK6 (Homo sapiens, UniProt Q00534); assay: Kinase inhibition assay (KinaseProfiler, Eurofins), CDK6; assay type: biochemical
T1 construct: purchased Eurofins (KinaseProfiler service)
T1 sequence (Q00534 whole entry): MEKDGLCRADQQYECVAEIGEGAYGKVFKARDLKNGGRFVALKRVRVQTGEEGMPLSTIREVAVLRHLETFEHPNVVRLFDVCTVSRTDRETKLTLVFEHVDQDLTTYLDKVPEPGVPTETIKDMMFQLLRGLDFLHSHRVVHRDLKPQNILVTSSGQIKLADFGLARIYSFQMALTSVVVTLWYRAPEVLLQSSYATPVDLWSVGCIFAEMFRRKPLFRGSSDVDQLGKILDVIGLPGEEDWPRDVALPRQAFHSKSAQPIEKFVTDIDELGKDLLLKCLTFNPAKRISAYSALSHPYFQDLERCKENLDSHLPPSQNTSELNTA
T1 sequence (P30281 whole entry partner): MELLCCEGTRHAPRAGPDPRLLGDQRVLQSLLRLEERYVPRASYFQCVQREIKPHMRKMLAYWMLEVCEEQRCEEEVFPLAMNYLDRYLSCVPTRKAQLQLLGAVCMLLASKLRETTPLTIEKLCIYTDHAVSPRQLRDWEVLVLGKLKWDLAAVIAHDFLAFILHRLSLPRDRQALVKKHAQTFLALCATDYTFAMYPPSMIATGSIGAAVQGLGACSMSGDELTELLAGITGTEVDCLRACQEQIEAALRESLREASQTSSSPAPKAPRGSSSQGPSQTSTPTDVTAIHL
Procedure: (§4) Kinase inhibition profiles were determined using KinaseProfiler services provided by Eurofins, and ATP concentrations used the Km of corresponding kinases.

A549 cells [2] = assay: Cell cycle assay (propidium iodide, flow cytometry), A549; assay type: cell-based, human; settings: 24 h treatment, vs DMSO
Procedure: (§5) Cells were harvested and washed with phosphate buffered saline (PBS) for three times and then fixed with ice cold 75% ethanol overnight. The fixed cells were then washed with PBS and stained with propidium iodide ([…]) in the presence of RNase A (0.5 mg) for 30 min at 37 °C. The stained cells were then subjected to flow cytometry (Modfit, BD) for cell cycle analysis.

4T1 homograft tumours = assay: In vivo 4T1 homograft tumour model; settings: for Tumour inhibition rate: oral gavage daily for 18 days, 4T1 homograft in BALB/c mice
Procedure: 4T1 breast cancer cells (5 × 10^4) were injected in the mammary fat pads of 6 − 8 weeks old female BALB/c mice. Once the tumours grew to a volume of approximately 100–150 mm^3, they were placed into five treatment groups (n = 3, with a total tumour number of 15). The mice were treated daily for 18 days via oral gavage. Body weights and tumour size were determined every other day. Tumour measurements were found using a digital vernier calliper, and the volumes were determined using the following calculation: (short^2) × long × 0.5. Experiments were performed under an approved IACUC protocol according to federal and institutional guidelines and regulations. Inhibition rate of tumour growth was calculated using the following formula: 100 × {1 − [(tumour volumefinal − tumour volumeinitial) for X22-treated group]/[(tumour volumefinal − tumour volumeinitial) for the vehicle-treated group]}.

[3] = system: RNAPII CTD Ser2 and Ser5 phosphorylation in A549 cells; assay: Western blotting of RNAPII CTD phosphorylation, A549; assay type: cell-based, human; settings: 24 h, vs DMSO
Procedure: (§6) Protein extraction and western blotting methods were performed as described previously. The antibodies used in this study including anti-β-actin (Santa Cruz; sc-47778), anti-p53 (CST; #9282), anti-phospho-p53^Ser15 (CST; #9284), anti-Bax (CST; #2772), anti-Bcl-2 (BD; #51-6511GR), anti-Rb (CST; #9309), anti-phospho-Rb^Ser807/811 (CST; #8516), anti-phospho-Rb^Ser780 (CST; #9307), anti-RNA polymerase II CTD (Abcam; ab817), anti-RNA polymerase II CTD^phospho S5 (Abcam; ab5131), anti-RNA polymerase II CTD^phospho S2 (Abcam; ab5095).

[4] = system: RNAPII CTD Ser2 and Ser5 phosphorylation in MCF7 cells; assay: Western blotting of RNAPII CTD phosphorylation, MCF7; assay type: cell-based, human; settings: 24 h, vs DMSO
Procedure: as §6

CDK4 = target: T2, CDK4 (Homo sapiens, UniProt P11802); assay: Kinase inhibition assay (KinaseProfiler, Eurofins), CDK4; assay type: biochemical
T2 construct: purchased Eurofins (KinaseProfiler service)
T2 sequence (P11802 whole entry): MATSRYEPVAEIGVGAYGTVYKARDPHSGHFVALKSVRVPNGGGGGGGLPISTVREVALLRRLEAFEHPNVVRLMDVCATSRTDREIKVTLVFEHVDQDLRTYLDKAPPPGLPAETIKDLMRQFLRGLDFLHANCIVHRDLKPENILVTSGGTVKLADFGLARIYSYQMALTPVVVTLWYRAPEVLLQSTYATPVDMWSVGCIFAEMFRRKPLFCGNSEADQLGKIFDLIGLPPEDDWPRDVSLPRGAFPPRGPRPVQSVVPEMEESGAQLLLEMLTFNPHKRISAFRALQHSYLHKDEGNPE
T2 sequence (P30281 whole entry partner): as the sequence (P30281 whole entry partner) above
Procedure: as §4

CDK9 = target: T3, CDK9 (Homo sapiens, UniProt P50750); assay: Kinase inhibition assay (KinaseProfiler, Eurofins), CDK9; assay type: biochemical
T3 construct: purchased Eurofins (KinaseProfiler service)
T3 sequence (P50750 whole entry): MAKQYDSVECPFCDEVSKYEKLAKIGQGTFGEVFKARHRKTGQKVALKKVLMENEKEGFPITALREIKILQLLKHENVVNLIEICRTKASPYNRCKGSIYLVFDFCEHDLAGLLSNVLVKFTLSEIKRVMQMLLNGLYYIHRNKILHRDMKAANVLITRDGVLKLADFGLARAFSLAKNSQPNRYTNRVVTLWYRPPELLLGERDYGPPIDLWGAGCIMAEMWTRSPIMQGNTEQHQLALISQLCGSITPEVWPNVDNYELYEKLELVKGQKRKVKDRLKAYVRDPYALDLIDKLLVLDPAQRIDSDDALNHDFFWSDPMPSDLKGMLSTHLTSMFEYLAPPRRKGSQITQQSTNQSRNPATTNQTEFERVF
T3 sequence (O60563 whole entry partner): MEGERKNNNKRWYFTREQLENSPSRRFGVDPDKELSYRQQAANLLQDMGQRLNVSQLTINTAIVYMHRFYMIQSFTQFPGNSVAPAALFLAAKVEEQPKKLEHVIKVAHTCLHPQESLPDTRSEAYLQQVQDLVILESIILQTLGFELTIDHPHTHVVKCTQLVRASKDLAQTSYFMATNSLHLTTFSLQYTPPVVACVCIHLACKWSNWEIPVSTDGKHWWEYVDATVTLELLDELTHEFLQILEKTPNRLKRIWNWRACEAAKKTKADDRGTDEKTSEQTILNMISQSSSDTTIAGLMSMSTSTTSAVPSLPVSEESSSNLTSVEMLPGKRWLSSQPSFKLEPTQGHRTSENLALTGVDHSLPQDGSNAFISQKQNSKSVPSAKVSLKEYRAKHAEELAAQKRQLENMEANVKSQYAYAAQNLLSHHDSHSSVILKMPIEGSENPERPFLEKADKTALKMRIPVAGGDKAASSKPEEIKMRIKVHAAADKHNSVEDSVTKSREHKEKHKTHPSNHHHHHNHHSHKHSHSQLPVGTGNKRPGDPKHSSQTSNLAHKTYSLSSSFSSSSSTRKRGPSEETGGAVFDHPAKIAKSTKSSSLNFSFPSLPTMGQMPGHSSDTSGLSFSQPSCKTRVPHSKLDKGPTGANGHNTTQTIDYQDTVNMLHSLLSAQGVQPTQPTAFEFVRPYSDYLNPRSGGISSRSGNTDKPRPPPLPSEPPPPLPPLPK
Procedure: as §4

MCF7 cells [5] = assay: CCK-8 cytotoxicity assay, MCF7; assay type: cell-based; settings: Homo sapiens, CCK-8, 72 h incubation, three independent experiments, read-out: In vitro cell growth inhibition IC50, MCF7
Procedure: as §1, §2

MCF7 cells [6] = assay: Cell cycle assay (propidium iodide, flow cytometry), MCF7; assay type: cell-based, human; settings: 24 h treatment, vs DMSO
Procedure: as §5

4T1 breast cancer cells = assay: CCK-8 cytotoxicity assay, 4T1; assay type: cell-based; settings: CCK-8, 72 h incubation, three independent experiments; read-out: In vitro cell growth inhibition IC50, 4T1
Procedure: as §1, §2

H460 cells = assay: CCK-8 cytotoxicity assay, H460; assay type: cell-based; settings: Homo sapiens, NCI-H460; CCK-8, 72 h incubation, three independent experiments; read-out: In vitro cell growth inhibition IC50, H460
Procedure: as §1, §2

A549 cells [7] = assay: CCK-8 cytotoxicity assay, A549; assay type: cell-based; settings: Homo sapiens, CCK-8, 72 h incubation, three independent experiments, read-out: In vitro cell growth inhibition IC50, A549
Procedure: as §1, §2

H1299 cells = assay: CCK-8 cytotoxicity assay, H1299; assay type: cell-based; settings: Homo sapiens, NCI-H1299; CCK-8, 72 h incubation, three independent experiments; read-out: In vitro cell growth inhibition IC50, H1299
Procedure: as §1, §2

A549 cells [8] = assay: Annexin V-FITC/PI apoptosis assay, A549; assay type: cell-based, human; settings: 48 h incubation, compared to DMSO or ribociclib
Procedure: as §3

[9] = ATP at Km, mean of two independent experiments

CN(C)C(=O)c1cc2cnc(Nc3ccc(CS(=O)(=O)CCCCCCN=C=S)cc3)nc2n1C1CCCC1 [X22] was tested, and the IC50 (T-47D cells) was 110 ± 10 nM, the “Increase of the percentages of apoptotic cells compared to DMSO-treated cells” value (MCF7 cells [1]) was 2.2 to 3.5 fold change and the inhibition at 1 µM (CDK6) was 91%. For the same compound, the IC50 (CDK6; [9]) was 126 ± 20.6 nM, the “Effect on the cell cycle” value (A549 cells [2]) was “blocked the cell cycle at G2/M phase” and the Tumour inhibition rate (4T1 homograft tumours; 15 mg/kg) was 51.8 ± 17.5%. For the same compound, the Tumour inhibition rate (4T1 homograft tumours; 30 mg/kg) was 65.4 ± 11.7%, the Tumour inhibition rate (4T1 homograft tumours; 60 mg/kg) was 70.3 ± 4.4% and the “Signs of toxicity (preliminary toxicity evaluation)” value (4T1 homograft tumours; 15, 30 or 60 mg/kg oral daily, 18 days, BALB/c mice) was “No obvious signs of toxicity”. For the same compound, the “Average tumour weight of excised tumours” value (4T1 homograft tumours; day 18, compared with other groups) was “obviously lighter”, the Mouse body weight (4T1 homograft tumours; monitored over 18 days, among the five groups of mice) was “no significant difference” and the “Concentration that effectively inhibited the phosphorylation of Ser2 and Ser5 of RNAPII CTD” value [3] was 1 µM. The “Concentration that effectively inhibited the phosphorylation of Ser2 and Ser5 of RNAPII CTD” value [4] was 0.5 µM, the inhibition at 1 µM (CDK4) was 97 ± 0.4% and the IC50 (CDK4; [9]) was 30 ± 3.9 nM. For the same compound, the inhibition at 1 µM (CDK9) was 98%, the IC50 (CDK9; [9]) was 10 ± 1.3 nM and the IC50 (MCF7 cells [5]) was 110 ± 70 nM. For the same compound, the “Effect on the cell cycle” value (MCF7 cells [6]) was “blocked the cell cycle at G2/M phase”, the IC50 (4T1 breast cancer cells) was 83 nM and the IC50 (H460 cells) was 1800 ± 340 nM. The IC50 (A549 cells [7]) was 210 ± 70 nM, the IC50 (H1299 cells) was 570 ± 70 nM and the “Proportion of apoptotic cells (Q2 late apoptotic and Q3 early apoptotic)” value (A549 cells [8]) was “dose-dependently increased”.
